Experimental data: US9486440B2, “Uses of indole-ketones or indolidones as neuro-protective drugs” (UNIVERSITY OF MACAU, priority 2011, dated 2016)
“Also recorded” adds a separate entry of the source.

Assays:
CGNs [1] = assay: FDA/PI double staining of CGNs after MPP+; assay type: cell-based, rat; details: 20 μM, 35 μM MPP+
Description: Viable granule neurons were stained with fluorescein formed from fluorescein diacetate (FDA), which is de-esterified only by living cells. Propidium iodide (PI) can penetrate cell membranes of dead cells to intercalate into double-stranded nucleic acids. Briefly, after incubation with 10 μg/ml FDA and 5 μg/ml PI for 15 min, the neurons were examined and photographed using UV light microscopy; and the pictures were compared with those photographed under phase contrast microscopy.
Viable granule neurons were stained with fluorescein formed from fluorescein diacetate (FDA) by esterase in viable cells. Propidium iodide (PI) can penetrate cell membranes of dead cells to intercalate into double-stranded nucleic acids. Briefly, after incubation with 10 μg/ml of FDA and 5 μg/ml of PI for 15 min, the neurons were examined and images were acquired using UV light microscopy for comparison with photos taken under phase contrast microscopy.

CGNs [2] = assay: MPP+-induced neurotoxicity in CGNs, MTT and LDH assays; assay type: cell-based, rat; details: for MPP+-induced neurotoxicity, co-administration: co-administrated with 35 μM MPP+, SU4312 10-20 μM, PTK787/ZK222584 10 μM, MTT at 24 hours; for MPP+-induced cell death (cell viability, MTT and LDH assays): pre-treatment 2 hours, then 35 μM MPP+ for 24 hours; for cell proliferative or cytotoxic effects of the drug alone: without MPP+, 26 hours, SU4312 1-30 μM, SU5416 30 μM, sunitinib 2 μM
Description: (§1) All animal experiments were conducted according to the ethical guidelines of ICMS, Macau University and the Animal Care Facility, The Hong Kong Polytechnic University. Rat CGNs were prepared from 8-day-old Sprague-Dawley rats (The Animal Care Facility, The Hong Kong Polytechnic University) as described by Li et al., 2005. Briefly, neurons were seeded at a density of 2.7×10^5 cells/ml in basal modified Eagle's medium (Invitrogen) containing 10% fetal bovine serum, 25 mM KCl, 2 mM glutamine, and penicillin (100 units/ml)/streptomycin (100 μg/ml). Cytosine arabinoside (10 μM) was added to the culture medium 24 hour after plating to limit the growth of non-neuronal cells. With the use of this protocol, more than 95% of the cultured cells were granule neurons.
(§2) The percentage of surviving neurons in the presence of SU4312 and/or MPP^+ was estimated by determining the activity of mitochondrial dehydrogenases with 3(4,5-dimethylthiazol-2-yl)-2.5-diphenyltetrazolium bromide (MTT) assay (Li et al., 2007). The assay was performed according to the specifications of the manufacturer (MTT kit I; Roche Applied Science). Briefly, the neurons were cultured in 96-well plates, 10 μl of 5 mg/ml MTT labeling reagent was added to each well containing cells in 100 μl of medium, and the plates were incubated for 4 hours in a humidified incubator at 37° C. After the incubation, 100 μl of the solvating solution (0.01 N HCl in 10% SDS solution) was added to each well for 16-20 hours. Absorbance of the samples was measured at a wavelength of 570 nm with 655 nm as a reference wavelength. Unless otherwise indicated, the extent of MTT conversion in cells exposed to MPP^+ is expressed as a percentage of the control.
Cytotoxicity was determined by measuring the release of lactate dehydrogenase (LDH). Briefly, cells were precipitated by centrifugation at 500 g for 5 min at room temperature, 50 μl of the supernatants was transferred into new wells, and LDH was determined using the in vitro toxicology assay kit (Roche). The absorbance of the samples was measured at a wavelength of 490 nm with 655 nm as a reference wavelength.
as §1, with “Rat” for “All animal experiments were conducted according to the ethical guidelines of ICMS, Macau University and the Animal Care Facility, The Hong Kong Polytechnic University. Rat”, “hours” for “hour”
as §2, with “The” for “The percentage of surviving neurons in the presence of SU4312 and/or MPP^+ was estimated by determining the activity of mitochondrial dehydrogenases with 3(4,5-dimethylthiazol-2-yl)-2.5-diphenyltetrazolium bromide (MTT) assay (Li et al., 2007). The”, “incubated at 37° C.” for “incubated”, “incubator.” for “incubator at 37° C.”, “The absorbance” for “Absorbance”

[3] = target: T1, recombinant human endothelial NOS (eNOS) (Homo sapiens, UniProt P29474); assay: In vitro NOS activity assay, eNOS; assay type: biochemical; details: PTK787/ZK222584 up to 1 mM
T1 construct: purchased Alexis Biochemicals (Lausen, Switzerland)
Description: In the in vitro NOS activity assay (Li et al., 2007), purified recombinant human nNOS, endothelial NOS (eNOS), and inducible NOS (iNOS) were bought from Alexis Biochemicals (Lausen, Switzerland). NOS activity was determined by monitoring the conversion of L-[3H]arginine to [3H]citrulline following the instructions provided in the kit (Calbiochem, USA). The reaction mixture contained a final volume of 40 μl with 25 mM Tris-Cl at pH 7.4, 3 μM tetrahydrobiopterin, 1 μM FAD, 1 μM FMN, 1 mM NADPH, 0.6 mM CaCl2, 0.1 μM calmodulin, 2.5 μg of pure NOS enzyme, 5 μl L-[3H]arginine (Perkin Elmer, Waltham, Mass., USA), and different concentrations of the tested reagents. The reaction mixture was incubated at 22° C. for 45 min. The reaction was quenched by adding 400 μl of stopping buffer (50 mM HEPES, pH 5.5, and 5 mM EDTA) for nNOS and eNOS reactions or by heating reactive tubes for iNOS. Unreacted L-[3H]arginine was then trapped by 100 μl of equilibrated resin provided in a spin cup followed by centrifugation for 30 s at 13,200 rpm. The filtrate was quantified by liquid scintillation counting.

SMILES	loss of neurons and morphological alterations (FDA/PI, phase contrast) (CGNs [1])	MPP+-induced neurotoxicity, co-administration (CGNs [2])	MPP+-induced cell death (cell viability, MTT and LDH assays) (CGNs [2])	cell proliferative or cytotoxic effects of the drug alone (CGNs [2])	inhibition of recombinant human eNOS [3]
CN(C)c1ccc(C=C2C(=O)Nc3ccccc32)cc1 [SU4312, 3-[4-(dimethylamino)benzylidenyl]indolin-2-one]	significantly blocked MPP^+-induced loss of neurons and reversed MPP^+-induced morphological alterations	still had neuroprotective effects	prevented MPP^+-induced cell death in a concentration-dependent manner	did not affect cell proliferation or show any cytotoxic effects; also recorded: did not induce any neurotoxicity	no activity against eNOS
Clc1ccc(Nc2nnc(Cc3ccncc3)c3ccccc23)cc1 [PTK787/ZK222584]		did not show neuroprotective effects	at 3-10 μM failed to block neuronal loss in vitro		did not inhibit any of the isoforms even at 1 mM
Cc1cc(C)c(/C=C2\C(=O)Nc3ccccc32)[nH]1 [SU5416, (3Z)-3-[(3,5-dimethyl-1H-pyrrol-2-yl)methylidene]-1,3-dihydro-2H-indol-2-one]	significantly blocked the loss of neurons and reversed the morphological alteration		prevented 35 μM MPP^+-induced cell death in a concentration-dependent manner	did not produce any cell proliferative or cytotoxic effects	
